Tests used:
Assay type in all cases: cell-based
[1] = test system: circBRIP1 in HCT116 cells; assay: DHX9 circBRIP1 cellular target engagement SYBR Green assay (qPCR); conditions: Homo sapiens, HCT-116, circBRIP1, HCT116 cells; SyBr assay (marked ^+); read-out: DHX9 Cellular Target Engagement EC50
NCI-H747 cells = assay: DHX9 cellular proliferation assay (CellTiter-Glo), NCI-H747 (CRC-MSS); conditions: Homo sapiens, NCI-H747, NCI-H747, CRC-MSS; performed at Pharmaron; read-out: H747 (CRC-MSS) Antiproliferative IC50
LS411N cells = assay: DHX9 cellular proliferation assay (CellTiter-Glo), LS411N (CRC-MSI); conditions: Homo sapiens, LS-411N, LS411N, CRC-MSI-H; performed at Pharmaron; read-out: LS411N (CRC-MSI-H) Antiproliferative IC50

| Compound | EC50 [1] | IC50 (NCI-H747 cells) | IC50 (LS411N cells) |
| --- | --- | --- | --- |
| CS(=O)(=O)Nc1cc(Cl)cc(NC(=O)c2cc(-c3ccccc3)c(CO)s2)c1 [Example 120, N-(3-chloro-5-(methylsulfonamido)phenyl)-5-(hydroxymethyl)-4-phenylthiophene-2-carboxamide] | 144 nM | 6980 nM | 1070 nM |
| Cc1cc(C(=O)Nc2cc(Cl)cc(NS(C)(=O)=O)c2)cn1-c1ccccc1 [Example 129, N-(3-chloro-5-(methylsulfonamido)phenyl)-5-methyl-1-phenyl-1H-pyrrole-3-carboxamide] | 333 nM | > 10000 nM | 1090 nM |
| Cc1cccnc1-n1cc(C(=O)Nc2cc(Cl)cc(NS(C)(=O)=O)c2)cc1C [Example 130] | 489 nM | > 10000 nM | 1160 nM |
| CCc1cn2cc(C(=O)Nc3cc(Cl)cc(NS(C)(=O)=O)c3)ccc2n1 [Example 132] | > 10000 nM | > 10000 nM | > 10000 nM |
| Cc1cccnc1-c1cc(C(=O)Nc2cc(Cl)cc(NS(C)(=O)=O)c2)cn1CC(F)F [Example 143, N-(3-chloro-5-(methylsulfonamido)phenyl)-1-(2,2-difluoroethyl)-5-(3-methylpyridin-2-yl)-1H-pyrrole-3-carboxamide] | 516 nM | 8540 nM | 1090 nM |
| CS(=O)(=O)Nc1cc(Cl)cc(NC(=O)c2cc(-c3ccccn3)c(CO)s2)c1 [Example 163, N-(3-chloro-5-(methylsulfonamido)phenyl)-5-(hydroxymethyl)-4-(pyridin-2-yl)thiophene-2-carboxamide] | 70 nM | > 10000 nM | 609 nM |
| Cn1cc(C(=O)Nc2cc(Cl)cc(NS(C)(=O)=O)c2)cc1-c1ncc(F)cn1 [Example 171, N-(3-chloro-5-(methylsulfonamido)phenyl)-5-(5-fluoropyrimidin-2-yl)-1-methyl-1H-pyrrole-3-carboxamide] | 95.7 nM | > 10000 nM | 372 nM |
| CCOc1cnc(-c2cc(C(=O)Nc3cc(Cl)cc(NS(C)(=O)=O)c3)cn2C)nc1 [Example 172] | 135 nM | 6890 nM | 237 nM |
| Cn1cc(C(=O)Nc2cc(Cl)cc(NS(C)(=O)=O)c2)cc1-c1ncccc1OCc1cncc(F)c1 [Example 174, N-(3-chloro-5-(methylsulfonamido)phenyl)-5-(3-((5-fluoropyridin-3-yl)methoxy)pyridin-2-yl)-1-methyl-1H-pyrrole-3-carboxamide] | 7 nM | > 10000 nM | 33.3 nM |
| CS(=O)(=O)Nc1cc(Cl)cc(NC(=O)c2cc(-c3ccccn3)c(C3CC3)s2)c1 [Example 177, N-(3-chloro-5-(methylsulfonamido)phenyl)-5-cyclopropyl-4-(pyridin-2-yl)thiophene-2-carboxamide] | 84.8 nM | > 10000 nM | 251 nM |
| CS(=O)(=O)Nc1cc(Cl)cc(NC(=O)c2cc(-c3ncccc3Oc3ncccn3)cs2)c1 [Example 178, N-(3-chloro-5-(methylsulfonamido)phenyl)-4-(3-(pyrimidin-2-yloxy)pyridin-2-yl)thiophene-2-carboxamide] | 101 nM | > 10000 nM | 81.1 nM |
| CS(=O)(=O)Nc1cc(Cl)cc(NC(=O)c2cc(-c3ncccc3OCc3cccnc3)n(CC(F)(F)F)c2)c1 [Example 185] | 73.3 nM | 8380 nM | 139 nM |
| CS(=O)(=O)Nc1cc(Cl)cc(NC(=O)c2cnn(-c3ncccc3OCc3cncc(F)c3)c2)c1 [Example 186] | 161 nM | > 10000 nM | 2440 nM |
| CS(=O)(=O)Nc1cc(Cl)cc(NC(=O)c2cnn(-c3ccc(N4CC5CCC(C4)O5)cn3)c2)c1 [Example 191] | 432 nM | > 10000 nM | > 10000 nM |
| CS(=O)(=O)Nc1cc(Cl)cc(NC(=O)c2cnn(-c3ncc(F)cc3OCc3cccc(F)c3)c2)c1 [Example 202] | 103 nM | 8560 nM | 111 nM |
| Cc1ccc(OCc2cccc(F)c2)c(-n2cc(C(=O)Nc3cc(Cl)cc(NS(C)(=O)=O)c3)cn2)n1 [Example 204] | 53.9 nM | > 10000 nM | 54.8 nM |
| CCOc1cnc(-n2cc(C(=O)Nc3cc(Cl)cc(NS(C)(=O)=O)c3)cc2C)nc1 [Example 208] | 125 nM | > 10000 nM | 218 nM |
| CS(=O)(=O)Nc1cc(Cl)cc(NC(=O)c2cnn(-c3ccccc3OCc3cccc(F)c3)c2)c1 [Example 210] | 77.2 nM | > 10000 nM | 111 nM |
| CNC(=O)c1sc(C(=O)Nc2cc(Cl)cc(NS(C)(=O)=O)c2)cc1-c1ncccc1OCc1ccccc1 [Example 212] | 32.6 nM | > 10000 nM | 202 nM |

| Compound | EC50 [1] | IC50 (NCI-H747 cells) | IC50 (LS411N cells) |
| --- | --- | --- | --- |
| CN(C)C(=O)c1sc(C(=O)Nc2cc(Cl)cc(NS(C)(=O)=O)c2)cc1-c1ncccc1OCc1ccccc1 [Example 213] | 74.6 nM | > 10000 nM | 173 nM |
| CS(=O)(=O)Nc1cc(F)cc(NC(=O)c2cc(-c3ncccc3OCc3ccccc3)cs2)c1 [Example 214] | 106 nM | 7150 nM | 203 nM |
| CS(=O)(=O)Nc1cc(Cl)cc(NC(=O)c2cc(-c3ncccc3OCc3cnco3)cs2)c1 [Example 215] | 23.7 nM | > 10000 nM | 118 nM |
| CS(=O)(=O)Nc1cc(Cl)cc(NC(=O)c2cc(-c3ncccc3OCc3ccccc3)c(CO)s2)c1 [Example 216] | 12.7 nM | > 10000 nM | 38.5 nM |
| CS(=O)(=O)Nc1cc(Cl)cc(NC(=O)c2cc(-c3ncccc3OCc3cccnc3)cs2)c1 [Example 217] | 13.6 nM | > 10000 nM | 53.3 nM |
| CCS(=O)(=O)Nc1cc(Cl)cc(NC(=O)c2cc(-c3ncccc3C)cs2)c1 [Example 224] | 55.8 nM | > 10000 nM | 122 nM |
| CS(=O)(=O)Nc1cc(Cl)cc(NC(=O)c2cc(-c3ncc(F)cc3OCc3cncc(F)c3)cs2)c1 [Example 225] | 19.9 nM | > 10000 nM | 43.9 nM |
| Cc1sc(C(=O)Nc2cc(Cl)cc(NS(C)(=O)=O)c2)cc1-c1ncccc1O [Example 227] | 40.3 nM | > 10000 nM | 879 nM |
| CS(=O)(=O)Nc1cc(Cl)cc(NC(=O)c2cc(-c3ncccc3COc3cc(F)cc(F)c3)cs2)c1 [Example 228] | 48.3 nM | > 10000 nM | 117 nM |
| CC(C)c1sc(C(=O)Nc2cc(Cl)cc(NS(C)(=O)=O)c2)cc1-c1ccccn1 [Example 233] | 460 nM | > 10000 nM | 356 nM |
| CS(=O)(=O)Nc1cc(Cl)cc(NC(=O)c2cc(-c3ncccc3Nc3ncccn3)cs2)c1 [Example 237] | 1910 nM | 3780 nM | 249 nM |
| CS(=O)(=O)Nc1cc(Cl)cc(NC(=O)c2cnn(-c3ncc(F)cc3CCc3cccc(F)c3)c2)c1 [Example 251] | > 10000 nM | > 10000 nM | 432 nM |
| Cc1cccc(OCc2cccc(F)c2)c1-n1cc(C(=O)Nc2cc(Cl)cc(NS(C)(=O)=O)c2)cn1 [Example 255] | 378 nM | > 10000 nM | 74.3 nM |
| Cc1cc(C(=O)Nc2cc(Cl)cc(NS(C)(=O)=O)c2)cn1-c1ccc(N2CC3(COC3)C2)cn1 [Example 276] | 64.2 nM | > 10000 nM | 61.7 nM |
| Cn1cc(C(=O)Nc2cc(Cl)cc(NS(C)(=O)=O)c2)cc1-c1ccc(N2CC3(COC3)C2)cn1 [Example 277] | 47.6 nM | 4700 nM | 66.7 nM |
| Cn1cc(C(=O)Nc2cc(Cl)cc(NS(C)(=O)=O)c2)cc1-c1ncccc1OCc1nccs1 [Example 279] | 53.3 nM | > 10000 nM | 81.1 nM |
| Cc1cc(C(=O)Nc2cc(Cl)cc(NS(C)(=O)=O)c2)cn1-c1ncccc1OCc1nccs1 [Example 280] | 74.2 nM | > 10000 nM | 116 nM |
| Cc1cc(C(=O)Nc2cc(Cl)cc(NS(C)(=O)=O)c2)cn1-c1ncccc1O [Example 281] | 483 nM | 7340 nM | 367 nM |
| Cc1cc(C(=O)Nc2cc(Cl)cc(NS(C)(=O)=O)c2)cn1-c1ccc(N2CCN(C(=O)C(C)C)CC2)cn1 [Example 283] | 131 nM | > 10000 nM | 92.3 nM |

Reference: US12162867B2, “Inhibitors of RNA helicase DHX9 and uses thereof” (ACCENT THERAPEUTICS, INC., priority 2022, dated 2024)
